In patent US20240383893A1, “Hydroxamic Acid Compound Having ENPP1 Inhibitory Activity and Use Thereof” (Haihe Biopharma Co., Ltd., priority 2021, published 2024):

biological target: ENPP1 (hENPP1-ECD-His) (Homo sapiens (Human), UniProt P22413)
Sequence (P22413 98-925): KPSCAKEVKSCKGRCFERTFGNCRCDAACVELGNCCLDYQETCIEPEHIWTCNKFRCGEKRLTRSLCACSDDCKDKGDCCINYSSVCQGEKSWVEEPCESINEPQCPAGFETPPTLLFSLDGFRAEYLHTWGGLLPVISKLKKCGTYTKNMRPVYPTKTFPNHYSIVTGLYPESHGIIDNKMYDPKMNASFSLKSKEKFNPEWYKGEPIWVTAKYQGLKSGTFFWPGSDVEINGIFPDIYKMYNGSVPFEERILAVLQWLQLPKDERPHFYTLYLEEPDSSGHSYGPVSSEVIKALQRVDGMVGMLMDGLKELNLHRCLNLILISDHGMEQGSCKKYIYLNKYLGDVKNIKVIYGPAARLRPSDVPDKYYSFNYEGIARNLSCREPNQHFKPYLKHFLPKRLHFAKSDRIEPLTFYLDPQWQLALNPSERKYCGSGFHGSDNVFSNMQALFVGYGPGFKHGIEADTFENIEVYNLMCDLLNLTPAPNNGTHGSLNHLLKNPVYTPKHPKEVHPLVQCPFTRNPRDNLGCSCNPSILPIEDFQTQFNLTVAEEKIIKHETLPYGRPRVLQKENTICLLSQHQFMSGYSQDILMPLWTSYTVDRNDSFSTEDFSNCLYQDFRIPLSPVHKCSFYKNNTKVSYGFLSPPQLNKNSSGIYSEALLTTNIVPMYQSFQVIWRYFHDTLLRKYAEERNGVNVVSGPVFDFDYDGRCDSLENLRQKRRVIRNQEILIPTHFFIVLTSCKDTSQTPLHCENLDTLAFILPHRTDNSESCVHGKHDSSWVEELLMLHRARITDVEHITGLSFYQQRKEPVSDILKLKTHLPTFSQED

In order of falling IC50:
1. CONC(=O)C(C)(C)c1ccc(Oc2ccnc3cc(OC)c(OC)cc23)cc1 [Example A-2, reference compound]  3280 nM
2. O=C(Cc1ccc(Nc2ncnc3c2cnn3CC(F)(F)F)cc1)NO [Compound 57]  513 nM
3. O=C(Cc1ccc(Nc2ncnc3c2cnn3C2CC2)cc1)NO [Compound 34]  376 nM
4. COc1ccc2c(NC3CCN(C(C)(C)C(=O)NO)C3)ccnc2n1 (stereo not drawn) [Compound 144]  259 nM
5. COc1ccc2c(C(C)c3ccc(C(C)(C)C(=O)NO)cc3)ccnc2n1 (stereo not drawn) [Compound 113]  219 nM
6. COc1ccc2c(Oc3ccc4c(C(=O)NO)cccc4c3)ccnc2n1 [Compound 92]  169 nM
7. COc1cccc2c(Oc3ccc(CC(=O)NO)cc3)c(C#N)cnc12 [Compound 5]  150 nM
8. CCOc1ccc2c(Oc3ccc(CC(=O)NO)cc3)ccnc2c1 [Compound 98]  125 nM
9. COc1ccc2c(Nc3ncc(CC(=O)NO)cn3)ccnc2n1 [Compound 151]  70 nM
10. COc1ccc2c(Oc3ccc([C@@H](C(=O)NO)C4CCOCC4)c(F)c3)ccnc2n1 [Compound 198]  61 nM
11. COc1ccc2c(N3CCc4cc(CC(=O)NO)ccc43)ccnc2n1 [Compound 204]  24 nM
12. COc1cc(Nc2ncnc3c2cnn3C)ccc1C(C)(C)C(=O)NO [Compound 126]  21 nM
13. Cn1ncc2c(Nc3ccc(CC(=O)NO)cc3)ncnc21 [Compound 15]  19 nM
14. COc1ccc2c(Oc3ccc(C(C(=O)NO)C4CCCC4)cc3)ccnc2n1 (stereo not drawn) [Compound 170]  18 nM
15. COc1ccc2c(Oc3cc(F)c(C(C)(C)C(=O)NO)c(F)c3)ccnc2n1 [Compound 46]  16 nM
16. Cn1ncc2ncnc(Nc3ccc(CC(=O)NO)cc3)c21 [Compound 29]  14 nM
17. COc1ccc2c(Oc3ccc([C@H](C(=O)NO)C4CCOCC4)c(F)c3)ccnc2n1 [Compound 206]  12 nM
18. COc1cc2nccc(Nc3ccc(C(C(=O)NO)C(C)C)cc3)c2cn1 (stereo not drawn) [Compound 177]  7.9 nM
19. COc1ccc2c(Nc3cc(F)c(C(C)C(=O)NO)cc3F)ccnc2n1 (stereo not drawn) [Compound 47]  4.5 nM
20. COc1cc2nccc(Nc3c(F)cc(C(C(=O)NO)C(C)C)cc3F)c2cn1 (stereo not drawn) [Compound 185]  3.6 nM
21. COc1ccc2c(Oc3ccc(C(C)(C(=O)NO)C4CCOCC4)cc3)ccnc2n1 (stereo not drawn) [Compound 172]  3.1 nM
22. COc1ccc2c(Nc3ccc(C4(C(=O)NO)CCOCC4)c(F)c3)ccnc2n1 [Compound 162]  3 nM
23. Cn1ncc2c(Oc3ccc(C(C)(C)C(=O)NO)cc3)ccnc21 [Compound 41]  3 nM
24. COc1cc2nccc(Oc3ccc(CC(=O)NO)cc3)c2cn1 [Compound 19]  2.9 nM
25. COc1ccc2c(Nc3cc(F)c(C(C)C(=O)NO)c(F)c3)ccnc2n1 (stereo not drawn) [Compound 48]  2.7 nM
26. COc1ccc2c(Nc3cnn(C4(C(=O)NO)CCOCC4)c3)ccnc2n1 [Compound 174]  2.1 nM
27. COc1ccc2c(Nc3ccc(C(C)(C)C(=O)NO)cc3)ccnc2n1 [Compound 69]  1.9 nM
28. CCn1ncc2c(Nc3ccc(C(C)C(=O)NO)c(F)c3)ccnc21 (stereo not drawn) [Compound 65]  1.9 nM
29. COc1ccc2c(Oc3ccc4c(c3)CCCC4(C)C(=O)NO)ccnc2n1 (stereo not drawn) [Compound 203]  1.8 nM
30. COc1ccc2c(Nc3ccc(C(CC(C)C)C(=O)NO)cc3)ccnc2n1 (stereo not drawn) [Compound 182]  1.7 nM
31. CCn1ncc2c(Oc3ccc(C4(C(=O)NO)CC4)cc3)ccnc21 [Compound 54]  1.6 nM
32. COc1ccc2c(Oc3ccc(C4(C(=O)NO)CCN(Cc5ccccc5)CC4)cc3)ccnc2n1 [Compound 173]  1.6 nM
33. COc1ccc2c(Nc3cnn(C(C)(C)C(=O)NO)c3)ccnc2n1 [Compound 118]  1.5 nM
34. COc1ccc2c(Oc3ccc(CC(=O)NO)cc3F)ccnc2n1 [Compound 26]  1.3 nM
35. COc1cc2nccc(Oc3ccc(C4(C(=O)NO)CCCC4)cc3)c2cn1 [Compound 123]  1.2 nM
36. COc1cc2nccc(Nc3ccc(C4(C(=O)NO)CCOCC4)cc3F)c2cn1 [Compound 178]  1.2 nM
